Data published in patent US8642585B2, “Indanyloxydihydrobenzofuranylacetic acids” (Boehringer Ingelheim International GmbH, priority 2012, dated 2014).

Each compound was assayed against human GPR40 receptor (Homo sapiens, UniProt O14842) (assay: Assay I: IP1 accumulation (IPOne HTRF) in 1321N1 cells stably expressing human GPR40). Settings: 1321N1 cells expressing human GPR40, stimulation 1 hour at 37° C., 10% CO2, final LiCl 50 mM.
Assay type: cell-based
Procedure: IP1 accumulation measurements using the IPOne assay system—1321N1 cells stably expressing human GPR40 receptor (Euroscreen, Belgium) are seeded 24 h before the assay in black clear-bottom collagen-coated 384-well plates in culture medium containing 10% FCS, 1% Na-Pyruvate and 400 μg/mL G418. IP1 is assayed according to the Manufacturers description (Cisbio Bioassays, France). In brief, the assay is started by substitution of the culture medium by stimulation buffer (Hepes 10 mM, CaCl2 1 mM, MgCl2 0.5 mM, KCl 4.2 mM, NaCl 146 mM and glucose 5.5 mM, pH 7.4) without LiCl. Cells are stimulated for 1 hour at 37° C., 10% CO2 by addition of the compounds that are diluted in stimulation buffer containing LiCl yielding a final LiCl concentration of 50 mM. Assays are stopped by adding HTRF-conjugates (IP1-d2 and Anti-IP1 cryptate Tb) and lysis buffer, provided by the manufacturer. After an incubation time of 1 hour at room temperature plates are measured using an EnVision™, Perkin Elmer. The obtained fluorescence ratios at 665/615 nM are then used to calculate the pEC50 values using GraphPad Prism 5 (Graphpad Software Inc, USA) by interpolation using an IP1 reference curve and subsequent sigmoidal curve fitting allowing for a variable hill slope.

Sequence of human GPR40 receptor (O14842 whole entry): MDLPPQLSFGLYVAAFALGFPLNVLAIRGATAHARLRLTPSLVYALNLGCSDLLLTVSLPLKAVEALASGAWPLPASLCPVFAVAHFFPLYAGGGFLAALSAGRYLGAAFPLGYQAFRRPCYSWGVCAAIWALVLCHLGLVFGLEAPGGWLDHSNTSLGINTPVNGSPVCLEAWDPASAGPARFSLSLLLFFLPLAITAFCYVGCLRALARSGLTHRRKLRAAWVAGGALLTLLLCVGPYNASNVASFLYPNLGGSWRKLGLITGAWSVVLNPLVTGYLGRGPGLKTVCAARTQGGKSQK

Row | SMILES | EC50
1 | Cc1cc(OC2CCOCC2)cc(C)c1-c1ccc(F)c2c1CC[C@H]2Oc1ccc2c(c1)OC[C@H]2CC(=O)O [Example 7, 2-((S)-6-((R)-4-(2,6-Dimethyl-4-(tetrahydro-2H-pyran-4-yloxy)phenyl)-7-fluoro-2,3-dihydro-1H-inden-1-yloxy)-2,3-dihydrobenzofuran-3-yl)acetic acid] | 6 nM
2 | Cc1cc(O[C@H]2CCOC2)cc(C)c1-c1ccc(F)c2c1CC[C@H]2Oc1ccc2c(c1)OC[C@H]2CC(=O)O [Example 8, 2-((S)-6-((R)-4-(2,6-Dimethyl-4-((S)-tetrahydrofuran-3-yloxy)phenyl)-7-fluoro-2,3-dihydro-1H-inden-1-yloxy)-2,3-dihydrobenzofuran-3-yl)acetic acid] | 4 nM
3 | Cc1cc(O[C@@H]2CCOC2)cc(C)c1-c1ccc(F)c2c1CC[C@H]2Oc1ccc2c(c1)OC[C@H]2CC(=O)O [Example 9, 2-((S)-6-((R)-4-(2,6-Dimethyl-4-((R)-tetrahydrofuran-3-yloxy)phenyl)-7-fluoro-2,3-dihydro-1H-inden-1-yloxy)-2,3-dihydrobenzofuran-3-yl)acetic acid] | 9 nM
4 | Cc1cc(OCC(C)(C)O)cc(C)c1-c1ccc(F)c2c1CC[C@H]2Oc1ccc2c(c1)OC[C@H]2CC(=O)O [Example 10, 2-((S)-6-((R)-7-Fluoro-4-(4-(2-hydroxy-2-methylpropoxy)-2,6-dimethylphenyl)-2,3-dihydro-1H-inden-1-yloxy)-2,3-dihydrobenzofuran-3-yl)acetic acid] | 9 nM
5 | Cc1cc(OC2CCC(O)C2)cc(C)c1-c1ccc(F)c2c1CC[C@H]2Oc1ccc2c(c1)OC[C@H]2CC(=O)O (stereo partly drawn) [Example 11, 2-((3S)-6-((1R)-7-Fluoro-4-(4-(3-hydroxycyclopentyloxy)-2,6-dimethylphenyl)-2,3-dihydro-1H-inden-1-yloxy)-2,3-dihydrobenzofuran-3-yl)acetic acid] | 5 nM
6 | CNC(=O)COc1cc(C)c(-c2ccc(F)c3c2CC[C@H]3Oc2ccc3c(c2)OC[C@H]3CC(=O)O)c(C)c1 [Example 12, 2-((S)-6-((R)-4-(2,6-Dimethyl-4-(2-(methylamino)-2-oxoethoxy)phenyl)-7-fluoro-2,3-dihydro-1H-inden-1-yloxy)-2,3-dihydrobenzofuran-3-yl)acetic acid] | 12 nM
7 | Cc1cc(OCC(=O)N(C)C)cc(C)c1-c1ccc(F)c2c1CC[C@H]2Oc1ccc2c(c1)OC[C@H]2CC(=O)O [Example 13, 2-((S)-6-((R)-4-(4-(2-(Dimethylamino)-2-oxoethoxy)-2,6-dimethylphenyl)-7-fluoro-2,3-dihydro-1H-inden-1-yloxy)-2,3-dihydrobenzofuran-3-yl)acetic acid] | 63 nM
8 | Cc1cc(OCC(N)=O)cc(C)c1-c1ccc(F)c2c1CC[C@H]2Oc1ccc2c(c1)OC[C@H]2CC(=O)O [Example 14, 2-((S)-6-((R)-4-(4-(2-Amino-2-oxoethoxy)-2,6-dimethylphenyl)-7-fluoro-2,3-dihydro-1H-inden-1-yloxy)-2,3-dihydrobenzofuran-3-yl)acetic acid] | 14 nM
9 | Cc1cc(OCC(C)(C)CO)cc(C)c1-c1ccc(F)c2c1CC[C@H]2Oc1ccc2c(c1)OC[C@H]2CC(=O)O [Example 15, 2-((S)-6-((R)-7-Fluoro-4-(4-(3-hydroxy-2,2-dimethylpropoxy)-2,6-dimethylphenyl)-2,3-dihydro-1H-inden-1-yloxy)-2,3-dihydrobenzofuran-3-yl)acetic acid] | 5 nM
10 | COCC(C)(C)COc1cc(C)c(-c2ccc(F)c3c2CC[C@H]3Oc2ccc3c(c2)OC[C@H]3CC(=O)O)c(C)c1 [Example 16, 2-((S)-6-((R)-7-Fluoro-4-(4-(3-methoxy-2,2-dimethylpropoxy)-2,6-dimethylphenyl)-2,3-dihydro-1H-inden-1-yloxy)-2,3-dihydrobenzofuran-3-yl)acetic acid] | 5 nM
11 | Cc1cc(-c2cncnc2)cc(C)c1-c1ccc(F)c2c1CC[C@H]2Oc1ccc2c(c1)OC[C@H]2CC(=O)O [Example 17, 2-((S)-6-((R)-4-(2,6-Dimethyl-4-(pyrimidin-5-yl)phenyl)-7-fluoro-2,3-dihydro-1H-inden-1-yloxy)-2,3-dihydrobenzofuran-3-yl)acetic acid] | 4 nM
12 | Cc1cc(-c2ncco2)cc(C)c1-c1ccc(F)c2c1CC[C@H]2Oc1ccc2c(c1)OC[C@H]2CC(=O)O [Example 18, 2-((S)-6-((R)-4-(2,6-Dimethyl-4-(oxazol-2-yl)phenyl)-7-fluoro-2,3-dihydro-1H-inden-1-yloxy)-2,3-dihydrobenzofuran-3-yl)acetic acid] | 4 nM
13 | Cc1cc(-c2cnn(C)c2)cc(C)c1-c1ccc(F)c2c1CC[C@H]2Oc1ccc2c(c1)OC[C@H]2CC(=O)O [Example 19, 2-((S)-6-((R)-4-(2,6-Dimethyl-4-(1-methyl-1H-pyrazol-4-yl)phenyl)-7-fluoro-2,3-dihydro-1H-inden-1-yloxy)-2,3-dihydrobenzofuran-3-yl)acetic acid] | 3 nM
14 | Cc1cc(-c2ccnn2C)cc(C)c1-c1ccc(F)c2c1CC[C@H]2Oc1ccc2c(c1)OC[C@H]2CC(=O)O [Example 20, 2-((S)-6-((R)-4-(2,6-Dimethyl-4-(1-methyl-1H-pyrazol-5-yl)phenyl)-7-fluoro-2,3-dihydro-1H-inden-1-yloxy)-2,3-dihydrobenzofuran-3-yl)acetic acid] | 9 nM
15 | Cc1cc(OC(C)(C)C#N)cc(C)c1-c1ccc(F)c2c1CC[C@H]2Oc1ccc2c(c1)OC[C@H]2CC(=O)O [Example 21, 2-((S)-6-((R)-4-(4-(2-Cyanopropan-2-yloxy)-2,6-dimethylphenyl)-7-fluoro-2,3-dihydro-1H-inden-1-yloxy)-2,3-dihydrobenzofuran-3-yl)acetic acid] | 9 nM
16 | Cc1cc(OCC(C)(C)CN(C)C)cc(C)c1-c1ccc(F)c2c1CC[C@H]2Oc1ccc2c(c1)OC[C@H]2CC(=O)O [Example 22, 2-((S)-6-((R)-4-(4-(3-(Dimethylamino)-2,2-dimethylpropoxy)-2,6-dimethylphenyl)-7-fluoro-2,3-dihydro-1H-inden-1-yloxy)-2,3-dihydrobenzofuran-3-yl)acetic acid] | 17 nM
17 | Cc1cc(OCCN2CCCC2=O)cc(C)c1-c1ccc(F)c2c1CC[C@H]2Oc1ccc2c(c1)OC[C@H]2CC(=O)O [Example 23, 2-((S)-6-((R)-4-(2,6-Dimethyl-4-(2-(2-oxopyrrolidin-1-yl)ethoxy)phenyl)-7-fluoro-2,3-dihydro-1H-inden-1-yloxy)-2,3-dihydrobenzofuran-3-yl)acetic acid] | 10 nM
18 | Cc1cc(C2=CCOCC2)cc(C)c1-c1ccc(F)c2c1CC[C@H]2Oc1ccc2c(c1)OC[C@H]2CC(=O)O [Example 24, 2-((S)-6-((R)-4-(4-(3,6-dihydro-2H-pyran-4-yl)-2,6-dimethylphenyl)-7-fluoro-2,3-dihydro-1H-inden-1-yloxy)-2,3-dihydrobenzofuran-3-yl)acetic acid] | 3 nM
19 | Cc1cc(C2=CCN(S(C)(=O)=O)CC2)cc(C)c1-c1ccc(F)c2c1CC[C@H]2Oc1ccc2c(c1)OC[C@H]2CC(=O)O [Example 25, 2-((S)-6-((R)-4-(2,6-dimethyl-4-(1-(methylsulfonyl)-1,2,3,6-tetrahydropyridin-4-yl)phenyl)-7-fluoro-2,3-dihydro-1H-inden-1-yloxy)-2,3-dihydrobenzofuran-3-yl)acetic acid] | 35 nM
20 | Cc1cc(OC2CN(S(C)(=O)=O)C2)cc(C)c1-c1ccc(F)c2c1CC[C@H]2Oc1ccc2c(c1)OC[C@H]2CC(=O)O [Example 26, 2-((S)-6-((R)-4-(2,6-Dimethyl-4-(1-(methylsulfonyl)azetidin-3-yloxy)phenyl)-7-fluoro-2,3-dihydro-1H-inden-1-yloxy)-2,3-dihydrobenzofuran-3-yl)acetic acid] | 17 nM
21 | Cc1cc(OCC2CCS(=O)(=O)C2)cc(C)c1-c1ccc(F)c2c1CC[C@H]2Oc1ccc2c(c1)OC[C@H]2CC(=O)O (stereo partly drawn) [Example 27, 2-((3S)-6-((1R)-4-(2,6-Dimethyl-4-((1,1-dioxo-tetrahydrothiophen-3-yl)methoxy)phenyl)-7-fluoro-2,3-dihydro-1H-inden-1-yloxy)-2,3-dihydrobenzofuran-3-yl)acetic acid] | 9 nM
22 | Cc1cc(OCC2CCS(=O)(=O)CC2)cc(C)c1-c1ccc(F)c2c1CC[C@H]2Oc1ccc2c(c1)OC[C@H]2CC(=O)O [Example 28, 2-((S)-6-((R)-4-(2,6-Dimethyl-4-((1,1-dioxo-tetrahydro-2H-thiopyran-4-yl)methoxy)phenyl)-7-fluoro-2,3-dihydro-1H-inden-1-yloxy)-2,3-dihydrobenzofuran-3-yl)acetic acid] | 6 nM
23 | Cc1cc(OCC2CN(S(C)(=O)=O)C2)cc(C)c1-c1ccc(F)c2c1CC[C@H]2Oc1ccc2c(c1)OC[C@H]2CC(=O)O [Example 29, 2-((S)-6-((R)-4-(2,6-Dimethyl-4-((1-(methylsulfonyl)azetidin-3-yl)methoxy)phenyl)-7-fluoro-2,3-dihydro-1H-inden-1-yloxy)-2,3-dihydrobenzofuran-3-yl)acetic acid] | 11 nM
24 | CCS(=O)(=O)N1CC(COc2cc(C)c(-c3ccc(F)c4c3CC[C@H]4Oc3ccc4c(c3)OC[C@H]4CC(=O)O)c(C)c2)C1 [Example 30, 2-((S)-6-((R)-4-(4-((1-(Ethylsulfonyl)azetidin-3-yl)methoxy)-2,6-dimethylphenyl)-7-fluoro-2,3-dihydro-1H-inden-1-yloxy)-2,3-dihydrobenzofuran-3-yl)acetic acid] | 7 nM
